Entries after “also recorded” stand apart in the source; their conditions may differ.
System: panel of up to 42 human chemokines
Test: Phage-display next generation sequencing screen of overlapping hexadecapeptide libraries, chemokines displayed on streptavidin beads;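 note: chemokine listed when log2 fold enrichment exceeds 5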
Assay type: binding
Summary of the method: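 Phage-display libraries of 55662 overlapping hexadecapeptides from tick and viral chemokine-binding proteins, human chemokines and chemokine receptors screened against up to 42 human chemokines, with hits found by next-generation sequencing. Peptides mapped to parent-protein position with log2 fold enrichment; regions of interest where cumulative residue log2 E exceeds the 95% upper CI of the protein median.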

[1] = log2E greater than 5, chemokines named by first part of UniProt entry name, C5a (control) binders excluded
[2] = log2E greater than 5, chemokines named by first part of UniProt Entry Name, peptides binding complement C5a (control) excluded
[3] = log2E greater than 5, chemokines named by first part of UniProt Entry Name

Substance | Chemokines Bound [1] | Chemokines Bound [3] | also measured
CR12277 (LFSFNRFFCQLVYFIY) | CCL18, CCL25,; also recorded: X3CL1, CXL10 | – | –
CR12308 (LFTLYVSTLDFCIVFI) | CCL20, CCL22, and CCL28, CXL10, and SDF1 | – | –
CR10175 (IVTIIITFFLSWSPYH) | CCL1, CCL17,; also recorded: CCL18, CCL20,; also recorded: CCL22, CCL25,; also recorded: CCL28, X3CL1,; also recorded: CXL10, CXL11,; also recorded: CXL14 | – | –
CR17298 (PGPWMNILWAWFIFWW) | CCL1, CCL17,; also recorded: CCL18, CCL19,; also recorded: CCL20, CCL28,; also recorded: CXL10, CXL14 | – | –
CR9284 (ILAFFASWLPYYIGIS) | – | – | Chemokines Bound [2]: CCL17, CCL18,; also recorded: CCL25
CR23240 (TLPFWGISVAWHWVFG) | – | CCL17, CCL18,; also recorded: CCL20, X3CL1,; also recorded: CXL11 | –
CR26306 (VWLMAIVGTFLNVLVI) | – | CCL22, CXL11,; also recorded: CXL13 | –
CR13967 (LPTMVFSFFYVIFSKA) | CCL1, CCL17,; also recorded: CCL18, CCL19,; also recorded: CCL20, CCL28,; also recorded: CXL10 | – | –
CR23945 (TVITFSLYVGQFLAYV) | – | CCL1, CCL15,; also recorded: CCL20, CCL22,; also recorded: CCL28, CXL10,; also recorded: CXL11, SDF1,; also recorded: CXL13 | –
CR7814 (GVVTSVITWLVAVFAS) | – | – | Chemokines Bound [2]: CCL11, CCL2, and CCL22, CCL8, and IL8
CR5242 (FIGFFGSIFFITVISI) | – | CCL17, CCL18,; also recorded: CCL20, X3CL1,; also recorded: CXL13 | –
CR2524 (CFLWGIFPTVIFSYFY) | – | CCL22, CCL25, and CXL13, CXL14, and IL8 | –
CR19192 (RLGVWLMSIVGTFLNV) | CCL1, CCL17,; also recorded: CCL2, CCL25,; also recorded: X3CL1, CXL11 | – | –
CR15917 (MVFSFFYVIFSKALHD) | CCL19, X3CL1,; also recorded: SDF1, CXL13 | – | –
CR4754 (FARAIDIIYSLITSAN) | – | CCL18, CCL28,; also recorded: X3CL1 | –
CR18933 (RFGVWLMSIVGTFLNM) | CCL28, CXL10, and IL8 | – | –
CR11604 (LALSISLLAEVLMFLF) | CCL17, CCL18,; also recorded: CCL20, CCL25,; also recorded: CXL10, CXL13,; also recorded: CXL14, IL8 | – | –
CR2278 (AVWGLSLLFALPDFIF) | CCL18, CCL2,; also recorded: CCL22, CCL28,; also recorded: CXL10, CXL11,; also recorded: SDF1, CXL13,; also recorded: CXL14, IL8 | – | –
CR26155 (VVLIFLLSWLPYNLVL) | – | CCL15, CCL28,; also recorded: CXL10, CXL13 | –
CR24347 (VAYSLIFLLGVIGNVL) | – | CCL18, CCL19,; also recorded: CCL20, CXL11,; also recorded: CXL14 | –

Substance | Chemokines Bound [1] | Chemokines Bound [3] | also measured
CR5170 (FGVITSIVTWGLAVLA) | – | X3CL1, CXL10, and IL8 | –
CR11719 (LATFKILIAIVWGVMP) | CCL1, CCL18,; also recorded: CCL20, CCL22,; also recorded: CCL25, CCL28,; also recorded: CXL10, SDF1 | – | –
CR20965 (SLFAALVTLITSLFGS) | CCL11, CCL17,; also recorded: CCL18, CCL19,; also recorded: CCL2, CCL20,; also recorded: CCL28, X3CL1,; also recorded: CXL10, CXL11,; also recorded: CXL14, IL8 | – | –
CR8437 (HTVLLSWKVLLTMVWG) | – | – | Chemokines Bound [2]: CCL1, CCL18,; also recorded: CCL19, CCL20,; also recorded: CXL13
CR20273 (SESALAFIYVLMFLCN) | CCL18, CCL19,; also recorded: CCL20, CXL14 | – | –
CR2290 (AWFLPIMYSIICFVGL) | CCL1, CCL17,; also recorded: CCL18, CCL19, | CCL20, CCL22, and CCL25, CCL28, and X3CL1, CXL10, and CXL11, SDF1, and CXL13, CXL14, and IL8 | –
CR8966 (IFWWIFAVIIAIPHFM) | – | – | Chemokines Bound [2]: IL8
CR15967 (MVWANLLVFVVSFLPL) | CCL1, CXL10, and SDF1 | – | –
CR22786 (TFTGLIAAFSWFMLSL) | CCL11, CCL17,; also recorded: CCL18, CCL2,; also recorded: CCL20, CCL22,; also recorded: CCL28, X3CL1,; also recorded: SDF1, IL8 | – | –
CR22218 (SVSLVNLLTIIGCLWV) | CCL19, X3CL1,; also recorded: CXL13 | – | –
VP485 (AMMLSLLIAGMSLMLG) | – | – | Chemokines Bound [2]: CCL11, CCL25, and CCL28, CCL5, and CXL11, CXL14, and IL8
CR14765 (LVFLLSLVGNSLVLWV) | CCL2, CCL28,; also recorded: CXL10, IL8 | – | –
CR26536 (WGWVLGDFLCKLLNMI) | – | CCL1, CCL11,; also recorded: CCL17, CCL18,; also recorded: CCL20, CCL22,; also recorded: CCL28, CCL5,; also recorded: X3CL1, CXL10,; also recorded: SDF1, IL8 | –
CR8126 (HIGYFGGIFFIILLTI) | – | – | Chemokines Bound [2]: CCL18, CCL22, and CCL25, CXL11, and IL8
CR26231 (VVTSVITWLVAVFASV) | – | CCL11, CCL17, and CCL18, CCL2, and CCL20, CCL25, and CCL8, CXL10, and CXL11, CXL14, and IL8 | –
CR26831 (WVLVIGSLVARWLLGI) | – | CCL17, CCL2,; also recorded: X3CL1, CXL10 | –
CR6624 (FYYLYVYLDIFSVVAV) | – | – | Chemokines Bound [2]: CCL15, CCL17, and CCL18, CCL19, and CCL20, CCL22, and CCL25, CCL28, and X3CL1, CXL10, and CXL11, SDF1, and CXL13, CXL14, and IL8
CR9887 (ISLFAGVSFLINLSMD) | – | – | Chemokines Bound [2]: CCL17, CCL18,; also recorded: CCL25
CR3716 (DVYLLNLAISDLLFVF) | – | CCL11, CCL2,; also recorded: CCL8, CXL11 | –
